This assay deals with USP14 (Homo sapiens, UniProt P54578). Briefly: USP14 Inhibition Assay. The format is biochemical. The settings on record: average value from a minimum of two experimental determinations, read-out: IC50 Category. From the text: The activity of the compound described herein to inhibit USP14 can be measured using previously described methodology [B. H. Lee et al. Nature 2010, 467 (9), 179, the contents of which are expressly incorporated by reference herein].
Example 6: USP14 Inhibition Assay

The IC50 is the concentration at which inhibition is half-maximal. Take `Cc1cc(C(=O)CN2CCCCC2)c(C)n1CC(F)(F)F` [Compound 107, 1-(2,5-Dimethyl-1-(2,2,2-trifluoroethyl)-1H-pyrrol-3-yl)-2-(piperidin-1-yl)ethanone]: the half-maximal inhibitory concentration (IC50) was more than 5 µM.
With `Cc1cc(C(=O)CN2CCCCC2)c(C)n1-c1ccc(C(=O)OCc2ccccc2)cc1` [Compound 110, trans-Benzyl 4-(2,5-dimethyl-3-(2-(piperidin-1-yl)acetyl)-1H-pyrrol-1-yl)benzoate] the figure was more than 5 µM.
With `Cc1cc(C(=O)CN2CCC(O)CC2)c(C)n1-c1ccc(C(=O)OCc2ccccc2)cc1` [Compound 111, trans-Benzyl 4-(3-(2-(4-hydroxypiperidin-1-yl)acetyl)-2,5-dimethyl-1H-pyrrol-1-yl)benzoate], the IC50 was more than 5 µM.
To `CCc1ccc(C(=O)CN2CCCCC2)n1-c1ccc(C#N)cc1` [Compound 112, 4-(2-Ethyl-5-(2-(piperidin-1-yl)acetyl)-1H-pyrrol-1-yl)benzonitrile] belongs more than 5 µM.
With `Cc1cc(C(=O)CN2CCC(O)CC2)c(C)n1-c1ccc(C(=O)O)cc1` [Compound 113, 4-(3-(2-(4-Hydroxypiperidin-1-yl)acetyl)-2,5-dimethyl-1H-pyrrol-1-yl)benzoic acid] the figure was more than 5 µM.
Take `Cc1cc(C(=O)CN2CCCCC2)c(C)n1-c1ccc(C(=O)O)cc1` [Compound 114, 4-(2,5-Dimethyl-3-(2-(piperidin-1-yl)acetyl)-1H-pyrrol-1-yl)benzoic acid]: the 50% inhibitory concentration (IC50) was more than 5 µM.
As to `CC(=O)c1c(CN2CCCCC2)c(C)n(-c2ccc(C#N)cc2)c1C` [Compound 117, 4-(3-Acetyl-2,5-dimethyl-4-(piperidin-1-ylmethyl)-1H-pyrrol-1-yl)benzonitrile], the half-maximal inhibitory concentration (IC50) is more than 5 µM.
For `Cc1cc(C(=O)CN2CCCCC2)c(C)n1[C@H]1CC[C@H](C(=O)O)CC1` [Compound 121, trans-4-(2,5-Dimethyl-3-(2-(piperidin-1-yl)acetyl)-1H-pyrrol-1-yl)cyclohexane-1-carboxylic acid], the IC50 was more than 5 µM.
As to `Cc1cc(C(=O)CN2CCCCC2)c(C)n1[C@H]1CC[C@H](C(N)=O)CC1` [Compound 122, trans-4-(2,5-Dimethyl-3-(2-(piperidin-1-yl)acetyl)-1H-pyrrol-1-yl)cyclohexane-1-carboxamide], the IC50 was more than 5 µM.
With `Cc1cc(C(=O)CNCC(O)CO)c(C)n1-c1ccc(C#N)cc1` (centres unmarked) [Compound 134, 4-(3-(2-((2,3-Dihydroxypropyl)amino)acetyl)-2,5-dimethyl-1H-pyrrol-1-yl)benzonitrile] the figure was 0.5 to 5 µM; with `Cc1cc(C(=O)CN2CCC(CNC(=O)OC(C)(C)C)CC2)c(C)n1-c1ccc(C#N)cc1` [Compound 135, tert-butyl ((1-(2-(1-(4-Cyanophenyl)-2,5-dimethyl-1H-pyrrol-3-yl)-2-oxoethyl)piperidin-4-yl)methyl)carbamate], 0.5 to 5 µM; with `CC#Cc1ccc(-n2c(C)cc(C(=O)CN3CCCCC3)c2C)cc1` [Compound 136, 1-(2,5-Dimethyl-1-(4-(prop-1-yn-1-yl)phenyl)-1H-pyrrol-3-yl)-2-(piperidin-1-yl)ethanone], 0.5 to 5 µM.
For the molecule `Cc1c(C(=O)CN2CCCCC2)c(C)n(-c2ccc(Cl)cc2)c1C` [Compound 137, 1-(1-(4-Chlorophenyl)-2,4,5-trimethyl-1H-pyrrol-3-yl)-2-(piperidin-1-yl)ethanone], the IC50 was 0.5 to 5 µM.
As to `Cc1cc(C(=O)CN(C)CCCCC(N)C(=O)O)c(C)n1-c1ccc(C#N)cc1` (centres unmarked) [Compound 138, 2-Amino-6-((2-(1-(4-cyanophenyl)-2,5-dimethyl-1H-pyrrol-3-yl)-2-oxoethyl)(methyl)amino)hexa-noic acid], the IC50 is 0.5 to 5 µM.
As for `Cc1c(C(=O)CN2CCC(O)CC2)c(C)n(-c2ccc(Cl)cc2)c1C` [Compound 139, 1-(1-(4-Chlorophenyl)-2,4,5-trimethyl-1H-pyrrol-3-yl)-2-(4-hydroxypiperidin-1-yl)ethanone], the IC50 is 0.5 to 5 µM.
Regarding `CC#Cc1ccc(-n2c(C)cc(C(=O)CN3CCC(O)CC3)c2C)cc1` [Compound 140, 1-(2,5-Dimethyl-1-(4-(prop-1-yn-1-yl)phenyl)-1H-pyrrol-3-yl)-2-(4-hydroxypiperidin-1-yl)ethanone], the IC50 lay within 0.5 to 5 µM.
As for `Cc1cc(C(=O)CN2CCCCC2)c(C)n1[C@H]1CC[C@H](C#N)CC1` [Compound 143, trans-4-(2,5-Dimethyl-3-(2-(piperidin-1-yl)acetyl)-1H-pyrrol-1-yl)cyclohexane-1-carbonitrile], the IC50 lay within 0.5 to 5 µM.
To `Cc1cc(C(=O)CN2CCC(CN)CC2)c(C)n1-c1ccc(C#N)cc1` [Compound 157, 4-(3-(2-(4-(Aminomethyl)piperidin-1-yl)acetyl)-2,5-dimethyl-1H-pyrrol-1-yl)benzonitrile] belongs less than 0.5 µM; to `Cc1cc(C(=O)CN2CCCC(CNC(=O)OC(C)(C)C)C2)c(C)n1-c1ccc(C#N)cc1` (centres unmarked) [Compound 158, tert-butyl ((1-(2-(1-(4-cyanophenyl)-2,5-dimethyl-1H-pyrrol-3-yl)-2-oxoethyl)piperidin-3-yl)methyl)carbamate], less than 0.5 µM.
Consider `Cc1cc(C(=O)CN2CCCC(CN)C2)c(C)n1-c1ccc(C#N)cc1` (centres unmarked) [Compound 159, 4-(3-(2-(3-(Aminomethyl)piperidin-1-yl)acetyl)-2,5-dimethyl-1H-pyrrol-1-yl)benzonitrile], for which the 50% inhibitory concentration (IC50) is less than 0.5 µM.

For the origin of these results see US11746098B2, “Proteasome activity enhancing compounds” (Proteostasis Therapeutics, Inc., priority 2018, dated 2023).
